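Test compounds were applied to cells in 96-well plates for 48 hours at 5 doses. GI50 marks 50% less growth.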 The source made the active and inactive calls. Rule as the data show it: active = GI50 up to about 1.1 µM and inactive = higher.
Legend:
Test in all cases: DTP human tumour cell line panel, 48 h
Malme-3M = test system: Malme-3M
MDA-MB-435 = test system: MDA-MB-435
RPMI-8226 = test system: RPMI-8226
HT-29 = test system: HT-29
SF-295 = test system: SF-295
LOX IMVI = test system: LOX IMVI
UACC-62 = test system: UACC-62
SN12C = test system: SN12C
MDA-N = test system: MDA-N
CAKI-1 = test system: CAKI-1
OVCAR-4 = test system: OVCAR-4
SF-539 = test system: SF-539
EKVX = test system: EKVX
HCT-116 = test system: HCT-116
MOLT-4 = test system: MOLT-4
OVCAR-3 = test system: OVCAR-3
A498 = test system: A498
NCI-H460 = test system: NCI-H460
COLO 205 = test system: COLO 205
U-251 = test system: U-251

Measured: GI50

COc1cc2nc3n(c(=O)c2cc1OC)CCCCC3
inactive: Malme-3M > 100 µM | MDA-MB-435 > 100 µM | RPMI-8226 83.9 µM | HT-29 > 100 µM | SF-295 > 100 µM | LOX IMVI > 100 µM | UACC-62 > 100 µM | SN12C > 100 µM | MDA-N > 100 µM | CAKI-1 > 100 µM | OVCAR-4 > 100 µM | SF-539 > 10 µM | EKVX > 100 µM | HCT-116 > 100 µM | MOLT-4 > 100 µM | OVCAR-3 > 100 µM | A498 > 100 µM | NCI-H460 > 100 µM | COLO 205 > 100 µM | U-251 > 100 µM

CN(C)C(=O)Oc1ccc(C(=S)Nc2ccccc2)cc1
inactive: Malme-3M 89.3 µM | MDA-MB-435 42.3 µM | RPMI-8226 64.1 µM | HT-29 51.2 µM | SF-295 87.7 µM | LOX IMVI 60.1 µM | UACC-62 35.9 µM | MDA-N 37.4 µM | CAKI-1 > 100 µM | OVCAR-4 32.1 µM | SF-539 > 100 µM | EKVX 45.9 µM | HCT-116 > 100 µM | MOLT-4 18.3 µM | OVCAR-3 86.5 µM | A498 > 100 µM | NCI-H460 40.5 µM | COLO 205 65.2 µM | U-251 > 100 µM

COc1nc2c(c(=O)n1C)N[C@@H]1[C@@H](O)[C@H](O)CO[C@@H]1N2
inactive: Malme-3M 39.4 µM | MDA-MB-435 > 100 µM | RPMI-8226 > 100 µM | HT-29 > 100 µM | SF-295 > 100 µM | LOX IMVI > 100 µM | UACC-62 > 100 µM | SN12C > 100 µM | MDA-N > 100 µM | CAKI-1 > 100 µM | OVCAR-4 > 100 µM | SF-539 > 100 µM | EKVX > 100 µM | HCT-116 > 100 µM | MOLT-4 > 100 µM | OVCAR-3 > 100 µM | A498 > 100 µM | NCI-H460 > 100 µM | COLO 205 > 100 µM | U-251 > 100 µM

NNC(=O)CC(=O)Nc1ccc(Cl)cc1
inactive: Malme-3M > 100 µM | MDA-MB-435 > 100 µM | RPMI-8226 > 100 µM | HT-29 > 100 µM | SF-295 > 100 µM | LOX IMVI 34.1 µM | UACC-62 > 100 µM | SN12C > 100 µM | MDA-N > 100 µM | CAKI-1 > 100 µM | OVCAR-4 > 100 µM | SF-539 > 100 µM | EKVX > 100 µM | HCT-116 > 100 µM | MOLT-4 > 100 µM | OVCAR-3 > 100 µM | A498 > 100 µM | NCI-H460 > 100 µM | COLO 205 > 100 µM | U-251 > 100 µM
